Experimental data as given in patent US20080090805A1, “CB-1 MODULATING COMPOUNDS AND THEIR USE” (ACADIA PHARMACEUTICALS INC., priority 2005, published 2008).
Read-outs that look alike come from different tables or passages of the source.

Molecular target: CB1 (mutant) (Homo sapiens, UniProt P21554)
Experiment: R-SAT functional receptor assay, CB1 (mutant, truncated after amino acid 417)
Type: cell-based
Settings: R-SAT CB1; for IC50: receptor form (mutant or wild-type) not stated; for Emax: receptor form not stated, relative to SR141716 (100%), read-out: % Inhibition
[1] = Appendix A, read-out: pIC50 (converted)

CB1 (mutant), sequence (P21554 1-417, change not shown): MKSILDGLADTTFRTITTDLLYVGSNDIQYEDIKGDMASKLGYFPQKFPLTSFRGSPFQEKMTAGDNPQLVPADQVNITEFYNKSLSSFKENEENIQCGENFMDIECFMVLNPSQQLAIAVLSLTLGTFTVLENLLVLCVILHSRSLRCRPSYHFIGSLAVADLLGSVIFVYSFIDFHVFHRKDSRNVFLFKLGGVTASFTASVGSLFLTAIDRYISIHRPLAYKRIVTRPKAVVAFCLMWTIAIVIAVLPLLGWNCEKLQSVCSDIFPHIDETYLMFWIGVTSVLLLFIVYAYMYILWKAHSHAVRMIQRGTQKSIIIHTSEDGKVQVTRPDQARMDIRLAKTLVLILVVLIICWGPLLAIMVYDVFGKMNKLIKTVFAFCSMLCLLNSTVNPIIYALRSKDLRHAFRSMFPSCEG

| Compound | IC50 [1] | Emax (Appendix A) | IC50 (pIC50, Appendix A) |
| --- | --- | --- | --- |
| Cc1ccsc1C1=Nc2cc(C(=O)NCCc3ccncc3)ccc2Sc2ccccc21 | 100 nM | 101% | – |
| CCCC1=Nc2cc(C(=O)N3CCc4ccccc4C3)ccc2Sc2ccccc21 | 631 nM | 95% | – |
| CCCC1=NC2=C(CCC(C(=O)N3CCN(c4ccccc4F)CC3)=C2)Sc2ccccc21 | 251 nM | 97% | – |
| O=C(NN1CCCCC1)c1ccc2c(c1)N=C(c1ccc(Br)cc1)c1ccccc1S2 [drawing 993] | 25.1 nM | 92% | – |
| CCCNC(=O)c1ccc2c(c1)N=C(c1ccc(OC)cc1)c1ccccc1S2 [drawing 915] | 15.8 nM | 112% | – |
| Cc1ccsc1C1=Nc2cc(C(=O)NCCC(C)C)ccc2Sc2ccccc21 [drawing 945] | 20 nM | 106% | – |
| O=C(NCCc1ccc(Cl)cc1)c1ccc2c(c1)N=C(N1CCC(F)CC1)c1ccccc1S2 [drawing 1119] | 39.8 nM | 103% | – |
| NS(=O)(=O)c1ccc(CNC(=O)C2C=C3N=C(N4CCCCC4)c4ccccc4SC3=CC2)cc1 (stereo not shown) | 398 nM | 78% | – |
| CCCC1=Nc2cc(C(=O)NCCc3ccc(OC)cc3OC)ccc2Sc2ccccc21 [drawing 570] | 50.1 nM | 101% | – |
| O=C(NN1CCOCC1)c1ccc2c(c1)N=C(c1cccc(Cl)c1)c1ccccc1S2 | 79.4 nM | 80% | – |
| CCN(CCNC(=O)c1ccc2c(c1)N=C(C1CCCCC1)c1ccccc1S2)c1ccccc1 [drawing 865] | 15.8 nM | 105% | – |
| O=C(NCc1ccco1)c1ccc2c(c1)N=C(c1ccc(F)cc1)c1ccccc1S2 [drawing 689] | 6.31 nM | 104% | – |
| O=C(NCCC(F)(F)F)c1ccc2c(c1)N=C(c1ccsc1)c1ccccc1S2 [drawing 607] | – | 97% | 3.98 nM |
| O=C(NCc1ccccc1)c1ccc2c(c1)N=C(c1ccc(F)cc1)c1ccccc1S2 [drawing 759] | 10 nM | 96% | – |
| O=C(NCCc1ccccn1)c1ccc2c(c1)N=C(c1ccc(Cl)cc1)c1ccccc1S2 [drawing 1049] | 31.6 nM | 93% | – |
| CCN(CCNC(=O)c1ccc2c(c1)N=C(N1CCCCC1)c1ccccc1S2)c1ccccc1 [drawing 913] | 15.8 nM | 105% | – |
| O=C(NNC(O)c1ccc2c(c1)N=C(c1cccc(Br)c1)c1ccccc1S2)c1ccccc1 (stereo not shown) | 100 nM | 76% | – |
| Cc1csc(CNC(=O)c2ccc3c(c2)N=C(c2cccc(F)c2)c2ccccc2S3)c1 [drawing 557] | 2.51 nM | 96% | – |
| O=C(NNC(=O)c1ccc2c(c1)N=C(c1ccc(F)cc1)c1ccccc1S2)c1ccccc1 [drawing 764] | 100 nM | 83% | – |
| CCCC1=Nc2cc(C(=O)NCC3CCCN3CC)ccc2Sc2ccccc21 (stereo not shown) | 1580 nM | 133% | – |
| CCONC(=O)c1ccc2c(c1)N=C(c1ccc(Cl)cc1F)c1ccccc1S2 | 200 nM | 87% | – |
| CC(NC(=O)c1ccc2c(c1)N=C(c1ccccc1F)c1ccccc1S2)c1ccccc1 (stereo not shown) [drawing 748] | 79.4 nM | 69% | – |
| O=C(NN1CCCC1)c1ccc2c(c1)N=C(c1ccc(F)cc1)c1ccccc1S2 | 158 nM | 92% | – |
| Cc1cc(Cl)ccc1C1=Nc2cc(C(=O)NC3CCCCC3)ccc2Sc2ccccc21 | 251 nM | 83% | – |
| O=C(NC1CCCC1)c1ccc2c(c1)N=C(c1ccc(Cl)c(Cl)c1)c1ccccc1S2 [drawing 672] | 63.1 nM | 95% | – |
| CCONC(=O)c1ccc2c(c1)N=C(c1ccc(Cl)c(Cl)c1)c1ccccc1S2 [drawing 806] | – | 87% | – |
| Cc1ccc(N2CCN(C(=O)c3ccc4c(c3)N=C(CC(C)C)c3ccccc3S4)CC2)c(C)c1 | 251 nM | 105% | – |

| Compound | IC50 [1] | Emax (Appendix A) | IC50 (pIC50, Appendix A) |
| --- | --- | --- | --- |
| O=C(NCCc1ccncc1)c1ccc2c(c1)N=C(c1ccccc1Cl)c1ccccc1S2 | 316 nM | 82% | – |
| CCONC(=O)c1ccc2c(c1)N=C(c1sccc1C)c1ccccc1S2 | 200 nM | 77% | – |
| CCCC1=Nc2cc(C(=O)NCC3C=CC4=C(C3)OCO4)ccc2Sc2ccccc21 (stereo not shown) | 398 nM | 91% | – |
| O=C(NNCc1ccccc1)c1ccc2c(c1)N=C(c1cccc(Br)c1)c1ccccc1S2 [drawing 928] | 251 nM | 86% | – |
| CCOC(=O)N1CCC(NC(=O)c2ccc3c(c2)N=C(C2CCCCC2)c2ccccc2S3)CC1 [drawing 814] | – | 95% | – |
| O=C(NN1CCCC1)c1ccc2c(c1)N=C(c1cccc(Cl)c1)c1ccccc1S2 | – | 85% | – |
| CCCC1=Nc2cc(C(=O)NCc3ccc4c(c3)OCO4)ccc2Sc2ccc(C)cc21 | 1580 nM | 77% | – |
| Cc1ccc(CNC(=O)c2ccc3c(c2)N=C(c2cccc(Cl)c2)c2ccccc2S3)o1 [drawing 623] | 5.01 nM | 74% | – |
| CCCCNC(=O)c1ccc2c(c1)N=C(c1ccc(F)cc1)c1ccccc1S2 [drawing 785] | – | 96% | 10 nM |
| CCCC1=Nc2cc(C(=O)NCCN3CCN(c4cccc(C)c4C)CC3)ccc2Sc2ccccc21 | 3160 nM | 84% | – |
| CCCC1=Nc2cc(C(=O)NCCc3ccc(OC)c(OC)c3)ccc2Sc2ccccc21 | 31.6 nM | 105% | – |
| CC(C)NC(=O)c1ccc2c(c1)N=C(c1cccc(Cl)c1)c1ccccc1S2 [drawing 921] | 15.8 nM | 118% | – |
| COc1ccc(C2=Nc3cc(C(=O)NC4CCCC4)ccc3Sc3ccccc32)cc1 [drawing 852] | 158 nM | 103% | – |
| CCCC1=Nc2cc(C(=O)NCCCN3CCN(c4cc(C)ccc4C)CC3)ccc2Sc2ccccc21 | 316 nM | 126% | – |
| CCCCNC(=O)c1ccc2c(c1)N=C(c1ccc(Cl)cc1)c1ccc(Cl)cc1S2 [drawing 766] | – | 90% | 100 nM |
| C[C@@H]1CCC[C@H](C)N1NC(=O)c1ccc2c(c1)N=C(c1ccc(Cl)cc1)c1ccccc1S2 [drawing 1133] | 39.8 nM | 96% | – |
| CCCC1=Nc2cc(C(=O)NC3CCCC(C)C3C)ccc2Sc2ccccc21 (stereo not shown) [drawing 1115] | – | 101% | 39.8 nM |
| O=C(NN1CCOCC1)c1ccc2c(c1)N=C(N1CCCCC1)c1ccccc1S2 | 794 nM | 99% | – |
| O=C(NCc1ccccc1Br)c1ccc2c(c1)N=C(c1ccc(Cl)cc1)c1ccccc1S2 [drawing 608] | 50.1 nM | 94% | – |
| O=C(NCc1cccs1)c1ccc2c(c1)N=C(c1cccc(Cl)c1)c1ccccc1S2 [drawing 573] | 2.51 nM | 108% | – |
| CONC(=O)c1ccc2c(c1)N=C(c1ccc(Cl)s1)c1ccccc1S2 | 398 nM | 66% | – |
| CC(CNC(=O)c1ccc2c(c1)N=C(c1ccc(Cl)cc1)c1ccccc1S2)c1ccccc1 (stereo not shown) [drawing 933] | 20 nM | 106% | – |
| Cc1cccnc1C1=Nc2cc(C(=O)NCCC(C)C)ccc2Sc2ccccc21 | 63.1 nM | 94% | – |
| CCCC1=Nc2cc(C(=O)NCCCN3CCN(C4CCCCC4)CC3)ccc2Sc2ccccc21 | 631 nM | 118% | – |
| CCCCCC1=Nc2cc(C(=O)N3CCN(c4ccc(C)cc4C)CC3)ccc2Sc2ccccc21 | 200 nM | 107% | – |
| O=C(NCc1ccccn1)c1ccc2c(c1)N=C(c1cccc(Br)c1)c1ccccc1S2 [drawing 891] | 15.8 nM | 85% | – |
